Literature values in article PMC9600270 (Cancers, 2022).
Values joined by “and” are separate entries in the source; they are usually repeats but may differ in a detail not shown here. Identical values can stand only once. Bridges are numbered along the chain shown (N, C = ends). Where no end group is shown, it is not given here.

Tests used:
RMS mouse xenografts = tested on: RMS mouse xenografts; parameters: method as in PMID 28447920; details: TmR-targeted vincristine-loaded liposomes
RMS cells = details: TmR-targeted vincristine-loaded liposomes
From the text: We previously selected RMS-targeting peptides by in vitro and in vivo phage display and tested them for their potential to increase vincristine-loaded liposomes’ accumulation in RMS mouse xenografts. […] We hypothesized that a targeting peptide with a stronger binding to RMS might be needed to achieve increased accumulation in RMS tumors in vivo. Here, we selected from the literature peptides binding to receptors k ... || We previously tested the peptide TmR for its potential to increase vincristine-loaded liposomes’ accumulation in RMS mouse xenografts. […] Here, we aimed at selecting a peptide with stronger binding to RMS cells than TmR, and F3 peptide bound to the four RMS cell lines tested 3- to 5-fold more than TmR peptide. Importantly, F3 pe ...

Q: Which “Tumor accumulation in vivo compared to non-targeted liposomes” value (RMS mouse xenografts) does the source give for “KRDRGGGCMGTINTRTRRC (disulfide 8-19 (inferred)) [TmR, Furin-targeting RMS peptide, modified version of RMS-P3]” here?
A: did not further increase

Q: And the “Increase of RMS binding of liposomes in vitro” value (RMS cells)?
A: 5.4 fold and 5 fold
